Results on 19 compounds are retold here after BindingDB's records for doi:10.1016/j.chembiol.2007.10.017 (University of California Irvine, 2007).

This experiment addresses T1, Monoglyceride lipase (Rattus norvegicus, UniProt Q8R431).
T1 sequence (Q8R431 whole entry): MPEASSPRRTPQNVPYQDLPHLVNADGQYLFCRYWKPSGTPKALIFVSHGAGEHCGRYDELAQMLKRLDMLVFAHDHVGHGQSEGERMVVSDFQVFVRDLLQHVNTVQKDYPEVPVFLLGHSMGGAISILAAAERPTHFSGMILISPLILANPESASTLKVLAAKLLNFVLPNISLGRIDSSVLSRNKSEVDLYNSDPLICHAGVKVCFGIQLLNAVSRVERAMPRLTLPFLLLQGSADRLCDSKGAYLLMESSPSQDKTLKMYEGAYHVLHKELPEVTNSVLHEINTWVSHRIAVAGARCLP
Description: Inhibition Assay. Particulars: pH 8. An excerpt:
The measurement of the ability of URB602 compound to inhibit MGL activity.
As usually defined, the IC50 is the concentration needed to halve the response being measured. With `O=C(Nc1cccc(-c2ccccc2)c1)Oc1ccccc1` [URB602, 3l], it took 243 µM to reach half-maximal inhibition (IC50).

`O=C(Nc1cccc(-c2ccccc2)c1)Oc1cccc(-c2ccccc2)c1` [URB602, 3j] gave an IC50 above 300 µM.

On to `O=C(Nc1cccc(-c2cccc(C(F)(F)F)c2)c1)OC1CCCCC1` [URB602, 3e], for which the IC50 was above 300 µM.

Turning to `O=C(Nc1cccc(-c2ccccc2)c1)OCCCCCc1ccccc1` [URB602, 3c], the IC50 is above 300 µM.

Take `O=C(Nc1ccc(-c2ccccc2)cc1)OC1CCCCC1` [URB602, 3k]: the IC50 was above 300 µM.

With `CN(C(=O)OC1CCCCC1)c1cccc(-c2ccccc2)c1` [URB602, 3o], the IC50 is above 300 µM.

`Cc1cccc(-c2cccc(NC(=O)OC3CCCCC3)c2)c1` [URB602, 3d] registered an IC50 above 300 µM.

On to `O=C(Nc1cccc(-c2ccccc2)c1)OCC(O)CO` (centres undefined) [URB602, 3h], for which the IC50 was above 300 µM.

Turning to `CC1(C)OCC(OC(=O)Nc2cccc(-c3ccccc3)c2)CO1` [URB602, 3i], the IC50 is above 300 µM.

`O=C(Nc1cccc(-c2ccccc2)c1)SC1CCCCC1` [URB602, 6] gave an IC50 above 300 µM.

With `O=C(Nc1cccc(-c2ccccc2)c1)NC1CCCCC1` [URB602, 4a], 115 µM corresponded to half-maximal inhibition (IC50).

Consider `O=C(NCCCCCc1ccccc1)OC1CCCCC1` [URB602, 3a], for which the IC50 is above 300 µM.

`O=C(Nc1cccc(Oc2cccc(-c3ccccc3)c2)c1)OC1CCCCC1` [URB602, 3f] had an IC50 above 300 µM.

With `O=C(Nc1ccccc1-c1ccccc1)OC1CCCCC1` [URB602, 3g], the IC50 was above 300 µM.

On to `O=C(Nc1cccc(-c2ccccc2)c1)OC(CO)CO` [URB602, 3n], for which the IC50 was above 300 µM.

`O=C(Nc1ccccc1)OC1CCCCC1` [URB602, 3b]: the IC50 is above 300 µM.

In turn, `O=C(CC1CCCCC1)Nc1cccc(-c2ccccc2)c1` [URB602, 5] displayed an IC50 above 300 µM.

`Cc1cccc(-c2cccc(NC(=O)OC(CO)CO)c2)c1` [URB602, 3m] came in with an IC50 above 300 µM.

With `O=C(Nc1cccc(-c2ccccc2)c1)OC1CCCCC1` [cyclohexyl biphenyl-3-ylcarbamate], the midpoint of inhibition, the IC50, lay at 223 µM.
